Assay results published in US10253002B2, “Compounds and methods of treating infections” (Neoculi Pty Ltd., priority 2013, dated 2019).

Experiments:
Assay in all cases: Broth microdilution MIC, Example 7 (NCL812 and analogues)
VRE = format: cell-based, Enterococcus spp.; conditions: for MIC (μg/ml) at 24 hours, VRE 1 / MIC (μg/ml) at 24 hours, VRE 2: duplicate lines per compound
Outline: (§1)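 Duplicates per isolate, repeated a third time if >one two-fold dilution apart. MIC50, MIC20 and range calculated per bacterial group.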

Pseudomonas aeruginosa = format: cell-based; conditions: P. aeruginosa; 24 hours; duplicate lines per compound
MRSA = format: cell-based, Staphylococcus aureus; conditions: for MIC (μg/ml) at 24 hours, MRSA 1 / MIC (μg/ml) at 24 hours, MRSA 2: duplicate lines per compound
Outline: as §1

Escherichia coli = format: cell-based; conditions: E. coli; 24 hours; duplicate lines per compound

SMILES	activity against VRE among analogues (VRE; MIC testing, two VRE strains)	MIC (μg/ml) at 24 hours, VRE 1 (VRE) [µg/mL]	MIC (μg/ml) at 24 hours, VRE 2 (VRE) [µg/mL]	MIC (μg/ml) at 24 hours, P. aeruginosa (Pseudomonas aeruginosa) [µg/mL]	activity against MRSA among analogues (MRSA; MIC testing, two MRSA strains)	MIC (μg/ml) at 24 hours, MRSA 1 (MRSA) [µg/mL]	MIC (μg/ml) at 24 hours, MRSA 2 (MRSA) [µg/mL]	MIC (μg/ml) at 24 hours, E. coli (Escherichia coli) [µg/mL]
CC(=NNC(=N)NN)c1ccc(C(F)(F)F)cc1.Cl [NCL073]	greatest activity	16	64	>128	greatest activity	128	128	>128
C/C(=N\NC(=N)N/N=C/c1ccc(C(F)(F)F)cc1)c1ccc(C(F)(F)F)cc1.Cl [NCL075]	–	>128	>128	>128	–	>128	>128	>128
Cc1ccc(C=NNC(=N)NN=Cc2ccc(Cl)cc2)cc1.Cl [NCL076]	–	>128	>128	>128	–	>128	>128	>128
Cl.N=C(N/N=C/c1ccc(Cl)cc1)N/N=C/c1ccc(C(F)(F)F)cc1 [NCL077]	–	>128	>128	>128	–	>128	>128	>128
Cl.N=C(N/N=C/c1ccc(Cl)cc1)N/N=C/c1cccc(Cl)c1 [NCL083]	–	>128	>128	>128	–	>128	>128	>128
Cl.N#Cc1ccccc1C=NNC(=N)NN=Cc1ccc(Cl)cc1 [NCL085]	–	>128	>128	>128	–	>128	>128	>128
Cl.N#Cc1cccc(C=NNC(=N)NN=Cc2ccc(Cl)cc2)c1 [NCL086]	–	>128	128	>128	–	>128	>128	>128
Cl.N#Cc1ccc(/C=N/NC(=N)N/N=C/c2ccc(Cl)cc2)cc1 [NCL087]	–	>128	>128	>128	–	>128	>128	>128
Cl.N=C(NC(=O)c1ccccc1)N(N=Cc1ccccc1Cl)C(=O)c1ccccc1 [NCL090]	–	>128	>128	>128	–	>128	>128	>128
